Data on one compound can be found in patent publication US20240389600A1 (The United States of America, as represented by the …, priority 2023, published 2024).

Series [1] relates to Georgia-06G peanut seeds. Briefly: Static incubation of hydrated peanut seeds with H2O2; resveratrol content by HPLC. Particulars: for resveratrol content in seeds: 48 and 72-h incubation.
Series [2] has as its system Georgia-06G peanut seeds. Particulars: 20° C.
The subject of series [3] is Georgia-06G peanut seeds. The conditions noted are these: 3% H2O2 replaced every 24 h, seed to liquid 1:8 w/v, 20° C., 72 h, Georgia-06G (2021 harvest).

Where two headings read alike, the source gives them in different places.

Consider `OO` [H2O2, hydrogen peroxide], for which the “resveratrol content in seeds” value in series [1] (2% H2O2, 20° C., Georgia-06G (2021 harvest), FIG. 13) fell in the range of 100 to 200 µg/g; in series [1] (static, 20° C., Georgia-06G (2021 harvest), FIG. 11C), 50 to 100 µg/g. Besides, the “resveratrol production under moderate acidic conditions” value in series [1] (2% H2O2, 20° C., static, acidic conditions, Georgia-06G 2020 harvest) is on record as “almost completely blocked resveratrol production”. In addition, the “levels of resveratrol in seeds” value in series [1] (3% H2O2, static, 15° C., after 72 and 96 h, Georgia-06G (2021 harvest)) lay in the range of 20 to 50 µg/g. Moreover, the “concentration of H2O2 that damages seeds (overall production of resveratrol drops, particularly after 72 h)” value in series [1] (static, 20° C., seeds to H2O2 1:6 w/v, Georgia-06G 2021) is “above 4%”. Besides, the resveratrol accumulation entry in series [2] (2% H2O2, in-shaker, after 72 h, Georgia-06G 2021) is given as “exceeding 300 μg/g of seed dry weight”. The resveratrol concentration was 400 µg/g in series [2] (3% H2O2 replaced every 24 h, seed to liquid 1:4 w/v, shaker, 72 h, Georgia-06G (2021 harvest)) and 600 µg/g in series [3]. In series [2] (3 portions of 3% H2O2 (new charge every 24 h), shaker, 72 h, Georgia-06G 2021), the “concentration of resveratrol in seed extract chromatogram” value is 334 μg/g of dry weight.
